Source: US20240108634A1, “COMPOSITIONS AND METHODS FOR INHIBITING YAP” (The United States Government as represented by the …, priority 2021, published 2024)

Tests used:
[1] = target: T1, YAP (Homo sapiens, UniProt P46937); test: Western blot of YAP and TEAD levels in GBM lines; assay type: cell-based; conditions: LN229, T98G, GBM39; 18 h, increasing concentrations
T1 construct: endogenous in cells; host or cells: LN229, T98G, GBM39
Procedure: (§1) Levels of total YAP were determined via ELISA. […] Immunoprecipitates were immunoblotted for the indicated proteins. […] Cells were treated with the indicated concentrations of inhibitor for 18 h and mRNA extracted for real time RT-PCR analyses. Measurements were performed in quadruplicate and means and+S.D. are shown. […] Cells were treated with (+) or without (−) NSC682769 (100 nM, 18 h) and harvested and separated into cytoplasmic and nuclear cellular fractions. Cytoplasmic versus nuclear material was subsequently immunoblotted for the indicated proteins. […] Values in top right corner of panels correspond to the percentage of nuclear localized YAP. […]
(§2) Protein and mRNA analyses, immunoprecipitation, in vitro bead-coupled inhibitor binding assays and HPLC analyses. […] Antigen-antibody complexes were detected using appropriate horseradish peroxidase-conjugated secondary antibodies (GE Healthcare) and enhanced chemiluminescence (Amersham ECL Prime). […] For quantitative RT-PCR, extraction of RNA was performed using Trizol® (Life Technologies). Total RNA was then quantified and integrity assessed using an Agilent 2100 Bioanalyzer (Agilent Technology). […] SYBR® Green quantitative PCR (Millipore Sigma) was performed in triplicate in 96-well optical plates on an ABI Prism 7000 Sequence Detection System (Life Technologies) according to the manufacturer's instructions. […]

[2] = system: YAP; test: Western blot of YAP and TEAD levels in GBM lines; assay type: cell-based, human; conditions: LN229, T98G, GBM39; 18 h, increasing concentrations
Procedure: as §1, §2

`COc1ccc(-c2cc(-c3ccccc3)nc3c2CC(=O)Nc2ccccc2-3)cc1OC` [NSC682769] was tested, and the YAP levels [1] was “decreased” and the TEAD levels [2] was “unaffected”.
